{"source": "patent US20180125842A1", "about": "“Ergoloid for Cancer” (priority 2016, published 2018)", "test_system": "splenic lymphoma", "test": "Clinical use in splenic lymphoma", "format": "in vivo, human", "settings": "before addition of Ergoloid"}
{"substance": "Rituxan: an immunotherapy", "values": [{"measurement": "disease course on Rituxan alone", "value": "gradually allowing progression"}]}
